Test results as given in patent US12065436B2, “Cardiac sarcomere inhibitors” (Cytokinetics, Inc., priority 2018, dated 2024).

Biological target: bovine cardiac myofibrils (full-length cardiac myosin ATPase in the native sarcomere) (Bos taurus (Bovine), UniProt Q9BE39)
Assay: Skinned bovine cardiac myofibril ATPase assay (PK/LDH-coupled)
Type: biochemical
Settings: Ca2+ activating to 75% of maximal rate; for CDMF75 IC15: concentration giving 15% inhibition; for IC50: read-out: CDMF75 IC50
Procedure, shortened: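 Triton-skinned bovine left-ventricle myofibrils (1 mg/mL) in PM 12 buffer (12 mM PIPES, 2 mM MgCl2, pH 6.8) with 50 μM ATP, 0.6 mM EGTA and CaCl2 set for 50% or 75% activation. Steady-state ATPase inhibition followed by PK/LDH-coupled NADH oxidation at 340 nm.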

Sequence of bovine cardiac myofibrils (full-length cardiac myosin ATPase in the native sarcomere) (Q9BE39 whole entry): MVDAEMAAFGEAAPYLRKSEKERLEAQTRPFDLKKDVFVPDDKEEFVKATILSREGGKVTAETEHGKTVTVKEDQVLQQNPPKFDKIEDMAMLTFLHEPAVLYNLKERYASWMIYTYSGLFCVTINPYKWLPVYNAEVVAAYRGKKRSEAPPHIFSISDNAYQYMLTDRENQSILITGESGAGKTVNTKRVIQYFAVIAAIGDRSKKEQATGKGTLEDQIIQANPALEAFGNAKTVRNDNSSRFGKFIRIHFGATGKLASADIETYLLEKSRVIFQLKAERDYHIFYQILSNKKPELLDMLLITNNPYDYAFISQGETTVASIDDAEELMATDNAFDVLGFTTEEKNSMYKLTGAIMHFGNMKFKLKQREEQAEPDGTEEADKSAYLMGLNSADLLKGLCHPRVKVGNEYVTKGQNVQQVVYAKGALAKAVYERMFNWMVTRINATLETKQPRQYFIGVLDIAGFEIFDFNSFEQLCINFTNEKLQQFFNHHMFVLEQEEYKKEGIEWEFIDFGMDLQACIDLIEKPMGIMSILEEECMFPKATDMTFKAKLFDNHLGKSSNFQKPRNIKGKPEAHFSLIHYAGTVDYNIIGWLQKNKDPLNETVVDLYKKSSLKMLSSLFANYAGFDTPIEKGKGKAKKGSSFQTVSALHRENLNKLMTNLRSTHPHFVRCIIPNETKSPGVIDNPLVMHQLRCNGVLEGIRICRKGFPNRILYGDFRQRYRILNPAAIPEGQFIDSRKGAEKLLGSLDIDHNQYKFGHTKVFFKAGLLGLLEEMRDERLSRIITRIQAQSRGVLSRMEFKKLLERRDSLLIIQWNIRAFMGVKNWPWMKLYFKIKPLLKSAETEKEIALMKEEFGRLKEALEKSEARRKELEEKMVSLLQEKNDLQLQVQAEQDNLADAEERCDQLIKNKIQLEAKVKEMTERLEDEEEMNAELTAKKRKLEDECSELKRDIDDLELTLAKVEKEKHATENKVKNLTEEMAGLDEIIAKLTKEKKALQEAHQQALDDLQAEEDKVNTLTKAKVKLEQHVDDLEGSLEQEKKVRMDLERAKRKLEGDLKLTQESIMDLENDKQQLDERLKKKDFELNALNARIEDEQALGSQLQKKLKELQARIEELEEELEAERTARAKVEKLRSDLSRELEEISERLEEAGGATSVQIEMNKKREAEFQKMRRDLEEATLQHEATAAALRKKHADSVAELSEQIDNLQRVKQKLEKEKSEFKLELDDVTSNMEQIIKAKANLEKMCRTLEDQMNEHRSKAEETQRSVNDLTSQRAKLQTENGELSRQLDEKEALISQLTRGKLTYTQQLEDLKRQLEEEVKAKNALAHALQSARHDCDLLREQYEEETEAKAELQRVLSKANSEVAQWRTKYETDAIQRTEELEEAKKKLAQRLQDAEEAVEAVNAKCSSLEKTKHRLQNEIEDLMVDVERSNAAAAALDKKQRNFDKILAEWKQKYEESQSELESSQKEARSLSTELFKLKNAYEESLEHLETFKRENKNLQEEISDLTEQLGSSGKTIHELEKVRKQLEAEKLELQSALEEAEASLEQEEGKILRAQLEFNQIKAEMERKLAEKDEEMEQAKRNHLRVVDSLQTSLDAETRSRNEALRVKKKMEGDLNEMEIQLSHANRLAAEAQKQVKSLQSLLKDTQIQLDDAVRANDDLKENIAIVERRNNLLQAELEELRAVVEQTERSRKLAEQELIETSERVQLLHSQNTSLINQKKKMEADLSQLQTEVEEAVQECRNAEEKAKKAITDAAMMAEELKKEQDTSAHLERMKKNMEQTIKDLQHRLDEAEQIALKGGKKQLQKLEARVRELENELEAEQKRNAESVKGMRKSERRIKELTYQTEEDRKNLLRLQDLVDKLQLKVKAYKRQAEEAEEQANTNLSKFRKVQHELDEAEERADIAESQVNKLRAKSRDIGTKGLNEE
Sequence of bovine cardiac myofibrils (full-length cardiac myosin ATPase in the native sarcomere) (P85100 whole entry partner): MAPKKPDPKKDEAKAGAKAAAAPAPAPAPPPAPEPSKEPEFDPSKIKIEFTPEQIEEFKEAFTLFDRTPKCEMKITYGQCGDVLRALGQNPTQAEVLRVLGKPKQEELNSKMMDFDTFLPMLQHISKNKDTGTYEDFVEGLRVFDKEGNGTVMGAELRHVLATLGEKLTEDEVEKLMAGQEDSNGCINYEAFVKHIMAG
Sequence of bovine cardiac myofibrils (full-length cardiac myosin ATPase in the native sarcomere) (Q3SZE5 whole entry partner): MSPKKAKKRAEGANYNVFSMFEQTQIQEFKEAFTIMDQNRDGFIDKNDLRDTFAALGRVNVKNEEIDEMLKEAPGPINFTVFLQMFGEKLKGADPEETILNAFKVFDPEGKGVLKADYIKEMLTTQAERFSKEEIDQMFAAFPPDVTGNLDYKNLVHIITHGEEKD

**Q.** How did the “CDMF75 IC15” value turn out when `Cc1noc(C(=O)NC2CCc3cc(-c4noc(C(F)F)n4)ccc32)n1` (stereo not drawn) [Compound 127, N-(5-(5-(difluoromethyl)-1,2,4-oxadiazol-3-yl)-2,3-dihydro-1H-inden-1-yl)-3-methyl-1,2,4-oxadiazole-5-carboxamide] was run?
**A.** The value was 1.7 µM.

**Q.** What about the IC50 of the same molecule?
**A.** The IC50 was 7.7 µM.

**Q.** What does the source list for `Cc1noc(C(=O)NC2CCc3cc(-c4noc(C)n4)ccc32)n1` (stereo not drawn) [Compound 128, 3-methyl-N-(5-(5-methyl-1,2,4-oxadiazol-3-yl)-2,3-dihydro-1H-inden-1-yl)-1,2,4-oxadiazole-5-carboxamide]?
**A.** CDMF75 IC15: 2.6 µM; IC50: 12.2 µM

**Q.** With `Cc1nocc1C(=O)NC1CCc2cc(-c3noc(C(F)F)n3)ccc21` (stereo not drawn) [Compound 129, N-(5-(5-(difluoromethyl)-1,2,4-oxadiazol-3-yl)-2,3-dihydro-1H-inden-1-yl)-3-methylisoxazole-4-carboxamide] as the molecule, how does the “CDMF75 IC15” value read?
**A.** The value was 0.5 µM.

**Q.** And the IC50?
**A.** Its IC50 is 1.5 µM.

**Q.** For `Cc1cc(C(=O)NC2CCc3cc(-c4nc(C)no4)ccc32)ccn1` (stereo not drawn) [Compound 130, 2-methyl-N-(5-(3-methyl-1,2,4-oxadiazol-5-yl)-2,3-dihydro-1H-inden-1-yl)isonicotinamide], which “CDMF75 IC15” value is on record?
**A.** Its value is 2.5 µM.

**Q.** And the IC50?
**A.** The IC50 was 10.3 µM.

**Q.** Which results are given for `Cc1cc(C(=O)N[C@@H]2CCc3cc(-c4nc(C)no4)ccc32)ccn1` [Compound 131, (R)-2-methyl-N-(5-(3-methyl-1,2,4-oxadiazol-5-yl)-2,3-dihydro-1H-inden-1-yl)isonicotinamide]?
**A.** CDMF75 IC15: 1.4 µM; IC50: 5.4 µM

**Q.** With `Cc1cc(C(=O)NC2CCc3cc(-c4nc(C(F)F)no4)ccc32)ccn1` (stereo not drawn) [Compound 132, N-(5-(3-(difluoromethyl)-1,2,4-oxadiazol-5-yl)-2,3-dihydro-1H-inden-1-yl)-2-methylisonicotinamide] as the molecule, how does the “CDMF75 IC15” value read?
**A.** Its value is 4.3 µM.

**Q.** And the IC50?
**A.** The IC50 was 17.7 µM.

**Q.** What does the source list for `Cc1cc(C(=O)N[C@@H]2CCc3cc(-c4nc(C(F)F)no4)ccc32)ccn1` [Compound 133, (R)-N-(5-(3-(difluoromethyl)-1,2,4-oxadiazol-5-yl)-2,3-dihydro-1H-inden-1-yl)-2-methylisonicotinamide]?
**A.** CDMF75 IC15: 1.5 µM; IC50: 5.7 µM

**Q.** Which “CDMF75 IC15” value does the source give for `Cc1cc(C(=O)NC2CCc3cc(-c4cnc(C)o4)ccc32)ccn1` (stereo not drawn) [Compound 134, 2-methyl-N-(5-(2-methyloxazol-5-yl)-2,3-dihydro-1H-inden-1-yl)isonicotinamide] here?
**A.** Its value is 39.2 µM.

**Q.** What about the IC50 of the same molecule?
**A.** The IC50 was > 39.2 µM.

**Q.** With `Cc1cc(C(=O)N[C@@H]2CCc3cc(-c4cnc(C)o4)ccc32)ccn1` [Compound 135, (R)-2-methyl-N-(5-(2-methyloxazol-5-yl)-2,3-dihydro-1H-inden-1-yl)isonicotinamide] as the molecule, how does the “CDMF75 IC15” value read?
**A.** The value was 39.2 µM.

**Q.** What about the IC50 of the same molecule?
**A.** Its IC50 is > 39.2 µM.

**Q.** With `Cc1nc(-c2ccc3c(c2)CC[C@H]3NC(=O)c2nnn(C)n2)no1` [Compound 136, (R)-2-methyl-N-(5-(5-methyl-1,2,4-oxadiazol-3-yl)-2,3-dihydro-1H-inden-1-yl)-2H-tetrazole-5-carboxamide] as the molecule, how does the “CDMF75 IC15” value read?
**A.** Its value is 0.8 µM.

**Q.** And the IC50?
**A.** The IC50 was 2.8 µM.

**Q.** How did the “CDMF75 IC15” value turn out when `Cc1cc(C(=O)NC2CCc3cc(-c4cc(C)on4)ccc32)ccn1` (stereo not drawn) [Compound 137, 2-methyl-N-(5-(5-methylisoxazol-3-yl)-2,3-dihydro-1H-inden-1-yl)isonicotinamide] was run?
**A.** Its value is 1.2 µM.

**Q.** What about the IC50 of the same molecule?
**A.** The IC50 was 4.9 µM.

**Q.** How did the “CDMF75 IC15” value turn out when `Cc1cc(C(=O)N[C@@H]2CCc3cc(-c4cc(C)on4)ccc32)ccn1` [Compound 138, (R)-2-methyl-N-(5-(5-methylisoxazol-3-yl)-2,3-dihydro-1H-inden-1-yl)isonicotinamide] was run?
**A.** The value was 0.8 µM.

**Q.** And the IC50?
**A.** The IC50 was 2.9 µM.

**Q.** Which results are given for `Cc1cc(C(=O)N[C@@H]2CCc3cc(-c4ncc(C)o4)ccc32)ccn1` [Compound 139, (R)-2-methyl-N-(5-(5-methyloxazol-2-yl)-2,3-dihydro-1H-inden-1-yl)isonicotinamide]?
**A.** CDMF75 IC15: 3.6 µM; IC50: 17.3 µM

**Q.** What does the source list for `Cc1cc(C(=O)NC2CCc3cc(-c4ncc(C)o4)ccc32)ccn1` (stereo not drawn) [Compound 140, 2-methyl-N-(5-(5-methyloxazol-2-yl)-2,3-dihydro-1H-inden-1-yl)isonicotinamide]?
**A.** CDMF75 IC15: 7.6 µM; IC50: > 39.2 µM

**Q.** `Cn1nnc(C(=O)N[C@@H]2CCc3cc(-c4noc(C5CCC5)n4)ccc32)n1` [Compound 143, (R)—N-(5-(5-cyclobutyl-1,2,4-oxadiazol-3-yl)-2,3-dihydro-1H-inden-1-yl)-2-methyl-2H-tetrazole-5-carboxamide] was tested. Which “CDMF75 IC15” value did it give?
**A.** Its value is 0.3 µM.

**Q.** What about the IC50 of the same molecule?
**A.** The IC50 was 1 µM.

**Q.** Which “CDMF75 IC15” value does the source give for `Cc1cc(C(=O)NC2CCc3cc(-c4coc(C)n4)ccc32)ccn1` (stereo not drawn) [Compound 145, 2-methyl-N-(5-(2-methyloxazol-4-yl)-2,3-dihydro-1H-inden-1-yl)isonicotinamide] here?
**A.** Its value is 39.2 µM.

**Q.** And the IC50?
**A.** The IC50 was > 39.2 µM.

**Q.** Which results are given for `Cc1cc(C(=O)N[C@@H]2CCc3cc(-c4coc(C)n4)ccc32)ccn1` [Compound 146, (R)-2-methyl-N-(5-(2-methyloxazol-4-yl)-2,3-dihydro-1H-inden-1-yl)isonicotinamide]?
**A.** CDMF75 IC15: 21.2 µM; IC50: > 39.2 µM

**Q.** How did the “CDMF75 IC15” value turn out when `Cc1cc(C(=O)N[C@@H]2CCc3cc(-c4nnn(C)n4)ccc32)ccn1` [Compound 147, (R)-2-methyl-N-(5-(2-methyl-2H-tetrazol-5-yl)-2,3-dihydro-1H-inden-1-yl)isonicotinamide] was run?
**A.** Its value is 1.3 µM.

**Q.** What about the IC50 of the same molecule?
**A.** The IC50 was 6.2 µM.

**Q.** How did the “CDMF75 IC15” value turn out when `Cc1cc(C(=O)NC2CCc3cc(-c4nnn(C)n4)ccc32)ccn1` (stereo not drawn) [Compound 148, 2-methyl-N-(5-(2-methyl-2H-tetrazol-5-yl)-2,3-dihydro-1H-inden-1-yl)isonicotinamide] was run?
**A.** Its value is 2.9 µM.

**Q.** What about the IC50 of the same molecule?
**A.** The IC50 was 13.5 µM.

**Q.** For `Cc1cc(C(=O)N[C@H]2CCc3cc(-c4nnn(C)n4)ccc32)ccn1` [Compound 149, (S)-2-methyl-N-(5-(2-methyl-2H-tetrazol-5-yl)-2,3-dihydro-1H-inden-1-yl)isonicotinamide], which “CDMF75 IC15” value is on record?
**A.** Its value is 39.2 µM.

**Q.** And the IC50?
**A.** Its IC50 is > 39.2 µM.

**Q.** How did the “CDMF75 IC15” value turn out when `Cc1nn(C)cc1C(=O)N[C@@H]1CCc2cc(-c3noc(C4CCC4)n3)ccc21` [Compound 150, (R)-N-(5-(5-cyclobutyl-1,2,4-oxadiazol-3-yl)-2,3-dihydro-1H-inden-1-yl)-1,3-dimethyl-1H-pyrazole-4-carboxamide] was run?
**A.** The value was 0.3 µM.

**Q.** What about the IC50 of the same molecule?
**A.** The IC50 was 1.2 µM.

**Q.** How did the “CDMF75 IC15” value turn out when `Cc1c(C(=O)N[C@@H]2CCc3cc(-c4noc(C5CCC5)n4)ccc32)cnn1C` [Compound 151, (R)-N-(5-(5-cyclobutyl-1,2,4-oxadiazol-3-yl)-2,3-dihydro-1H-inden-1-yl)-1,5-dimethyl-1H-pyrazole-4-carboxamide] was run?
**A.** The value was 0.5 µM.

**Q.** What about the IC50 of the same molecule?
**A.** The IC50 was 2 µM.

**Q.** With `Cc1nn(C)cc1C(=O)N[C@@H]1CCc2cc(-c3noc(C(C)C)n3)ccc21` [Compound 152, (R)-N-(5-(5-isopropyl-1,2,4-oxadiazol-3-yl)-2,3-dihydro-1H-inden-1-yl)-1,3-dimethyl-1H-pyrazole-4-carboxamide] as the molecule, how does the “CDMF75 IC15” value read?
**A.** Its value is 0.6 µM.

**Q.** What about the IC50 of the same molecule?
**A.** Its IC50 is 2.2 µM.

**Q.** `Cc1c(C(=O)N[C@@H]2CCc3cc(-c4noc(C5CC5)n4)ccc32)cnn1C` [Compound 153, (R)-N-(5-(5-cyclopropyl-1,2,4-oxadiazol-3-yl)-2,3-dihydro-1H-inden-1-yl)-1,5-dimethyl-1H-pyrazole-4-carboxamide] was tested. Which “CDMF75 IC15” value did it give?
**A.** Its value is 0.5 µM.

**Q.** What about the IC50 of the same molecule?
**A.** Its IC50 is 1.9 µM.

**Q.** `Cc1nn(C)cc1C(=O)N[C@@H]1CCc2cc(-c3noc(C4CC4)n3)ccc21` [Compound 154, (R)-N-(5-(5-cyclopropyl-1,2,4-oxadiazol-3-yl)-2,3-dihydro-1H-inden-1-yl)-1,3-dimethyl-1H-pyrazole-4-carboxamide] was tested. Which “CDMF75 IC15” value did it give?
**A.** The value was 0.4 µM.

**Q.** What about the IC50 of the same molecule?
**A.** The IC50 was 1.5 µM.

**Q.** Which “CDMF75 IC15” value does the source give for `Cc1cc(C(=O)NC2COc3cc(-c4noc(C)n4)ccc32)n(C)n1` (stereo not drawn) [Compound 155, 1,3-dimethyl-N-(6-(5-methyl-1,2,4-oxadiazol-3-yl)-2,3-dihydrobenzofuran-3-yl)-1H-pyrazole-5-carboxamide] here?
**A.** The value was 1.0 µM.

**Q.** And the IC50?
**A.** Its IC50 is 4.1 µM.

**Q.** With `Cc1cc(C(=O)N[C@@H]2COc3cc(-c4noc(C)n4)ccc32)n(C)n1` [Compound 156, (S)-1,3-dimethyl-N-(6-(5-methyl-1,2,4-oxadiazol-3-yl)-2,3-dihydrobenzofuran-3-yl)-1H-pyrazole-5-carboxamide] as the molecule, how does the “CDMF75 IC15” value read?
**A.** The value was 1.1 µM.

**Q.** And the IC50?
**A.** Its IC50 is 4.7 µM.

**Q.** What does the source list for `Cc1nc(-c2ccc3c(c2)OCC3NC(=O)c2cn(C)nc2C)no1` (stereo not drawn) [Compound 157, 1,3-dimethyl-N-(6-(5-methyl-1,2,4-oxadiazol-3-yl)-2,3-dihydrobenzofuran-3-yl)-1H-pyrazole-4-carboxamide]?
**A.** CDMF75 IC15: 1.4 µM; IC50: 5.9 µM

**Q.** What does the source list for `Cc1nc(-c2ccc3c(c2)OCC3NC(=O)c2oc(C)nc2C)no1` (stereo not drawn) [Compound 159, 2,4-dimethyl-N-(6-(5-methyl-1,2,4-oxadiazol-3-yl)-2,3-dihydrobenzofuran-3-yl)oxazole-5-carboxamide]?
**A.** CDMF75 IC15: 1.9 µM; IC50: 8.4 µM

**Q.** `Cc1nc(-c2ccc3c(c2)OC[C@@H]3NC(=O)c2oc(C)nc2C)no1` [Compound 160, (R)-2,4-dimethyl-N-(6-(5-methyl-1,2,4-oxadiazol-3-yl)-2,3-dihydrobenzofuran-3-yl)oxazole-5-carboxamide] was tested. Which “CDMF75 IC15” value did it give?
**A.** The value was 6.5 µM.

**Q.** And the IC50?
**A.** The IC50 was 31.3 µM.

**Q.** With `Cc1nc(-c2ccc3c(c2)OC[C@H]3NC(=O)c2oc(C)nc2C)no1` [Compound 161, (S)-2,4-dimethyl-N-(6-(5-methyl-1,2,4-oxadiazol-3-yl)-2,3-dihydrobenzofuran-3-yl)oxazole-5-carboxamide] as the molecule, how does the “CDMF75 IC15” value read?
**A.** Its value is 1.1 µM.

**Q.** What about the IC50 of the same molecule?
**A.** The IC50 was 4.4 µM.

**Q.** Which “CDMF75 IC15” value does the source give for `Cc1nc(-c2ccc3c(c2)OCC3NC(=O)c2cnn(C)c2C)no1` (stereo not drawn) [Compound 162, 1,5-dimethyl-N-(6-(5-methyl-1,2,4-oxadiazol-3-yl)-2,3-dihydrobenzofuran-3-yl)-1H-pyrazole-4-carboxamide] here?
**A.** The value was 1.6 µM.

**Q.** And the IC50?
**A.** The IC50 was 6.4 µM.

**Q.** With `Cc1nc(-c2ccc3c(c2)OC[C@H]3NC(=O)c2cnn(C)c2C)no1` [Compound 163, (S)-1,5-dimethyl-N-(6-(5-methyl-1,2,4-oxadiazol-3-yl)-2,3-dihydrobenzofuran-3-yl)-1H-pyrazole-4-carboxamide] as the molecule, how does the “CDMF75 IC15” value read?
**A.** The value was 0.8 µM.

**Q.** And the IC50?
**A.** The IC50 was 3.1 µM.
